# Test results published in patent US20250171430A1, “PYRAZOLYL COMPOUNDS AS KV7 CHANNEL ACTIVATORS” (Biohaven Therapeutics Ltd., priority 2022, published 2025).
# Molecular target: T1, Kv7.2/7.3 (Homo sapiens, UniProt O43525+O43526)
# T1 construct: Kv7.2 tetracycline-induced, Kv7.3 constitutive
# Experiment: Kv7.2/7.3 Activation Assay (Thallium Flux Assay)
# Format: cell-based
# Details: hKV7.2/7.3 cell line; test compound at single concentration of 10 μM; fluorescence at 90 sec normalized to positive control (retigabine, 30 μM)
# Summary of the method: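 Human Kv7.2/7.3 cells with Kv7.2 induced overnight by 10 ng/mL tetracycline were loaded with FluxOR II Green for 1 h at 37 °C. Compounds were tested at 10 μM in 0.1% DMSO/extracellular solution, pH 7.4. Thallium/potassium stimulus was added after a 15 s baseline, and 90 s fluorescence (ex 475/em 530 nm) was normalized to 30 μM retigabine.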
row,SMILES,Kv7.2/7.3 Activity
1,"Cn1nc(NC(=O)NC2CC(F)(F)C2)c(C2CCC2)c1-c1ccc(F)c(F)c1 [Compound 213, 1-(4-cyclobutyl-5-(3,4-difluorophenyl)-1-methyl-1H-pyrazol-3-yl)-3-(3,3-difluorocyclobutyl)urea]",++ (“++” High Activity ≥ 0.7)
2,"CCO[C@@H](CC(=O)Nc1nn(C)c(-c2ccc(F)c(F)c2)c1C1CCC1)C(F)(F)F [Compound 214, (S)-N-(4-cyclobutyl-5-(3,4-difluorophenyl)-1-methyl-1H-pyrazol-3-yl)-3-ethoxy-4,4,4-trifluorobutanamide]",++ (“++” High Activity ≥ 0.7)
3,"CO[C@@H](CC(=O)Nc1nn(C)c(-c2ccc(F)c(F)c2)c1C1CCC1)C(F)(F)F [Compound 215, (S)-N-(4-cyclobutyl-5-(3,4-difluorophenyl)-1-methyl-1H-pyrazol-3-yl)-4,4,4-trifluoro-3-methoxybutanamide]",++ (“++” High Activity ≥ 0.7)
4,"COC1(CC(=O)Nc2nn(C)c(-c3ccc(F)c(F)c3)c2C2CCC2)CCC1 [Compound 216, N-(4-cyclobutyl-5-(3,4-difluorophenyl)-1-methyl-1H-pyrazol-3-yl)-2-(1-methoxycyclobutyl)acetamide]",++ (“++” High Activity ≥ 0.7)
5,"Cn1nc(NC(=O)CC2CC(F)(F)C2)c(C2CCC2)c1-c1ccc(F)c(F)c1 [Compound 217, N-(4-cyclobutyl-5-(3,4-difluorophenyl)-1-methyl-1H-pyrazol-3-yl)-2-(3,3-difluorocyclobutyl)acetamide]",++ (“++” High Activity ≥ 0.7)
6,"Cn1nc(NC(=O)CC2CC(F)(F)C2)c(C2CCC2)c1-c1ccc(Cl)s1 [Compound 218, N-(5-(5-chlorothiophen-2-yl)-4-cyclobutyl-1-methyl-1H-pyrazol-3-yl)-2-(3,3-difluorocyclobutyl)acetamide]",++ (“++” High Activity ≥ 0.7)
7,"Cn1nc(NC(=O)[C@@H]2C[C@H]2F)c(C2CCC2)c1-c1ccc(F)cc1 [Compound 219, (1S,2R)-N-(4-cyclobutyl-5-(4-fluorophenyl)-1-methyl-1H-pyrazol-3-yl)-2-fluorocyclopropane-1-carboxamide]",− (“−” No Activity < 0.15)
8,"Cn1nc(NC(=O)C2CC(F)(F)C2)c(C2CCC2)c1-c1ccc(Cl)cc1 [Compound 220, N-(5-(4-chlorophenyl)-4-cyclobutyl-1-methyl-1H-pyrazol-3-yl)-3,3-difluorocyclobutane-1-carboxamide]",++ (“++” High Activity ≥ 0.7)
9,"Cn1nc(NC(=O)C2(C)CC(F)(F)C2)c(C2CCC2)c1-c1ccc(Cl)cc1 [Compound 221, N-(5-(4-chlorophenyl)-4-cyclobutyl-1-methyl-1H-pyrazol-3-yl)-3,3-difluoro-1-methylcyclobutane-1-carboxamide]",+ (“+” Moderate Activity 0.15-0.7)
10,"Cn1nc(NC(=O)CC2CC(F)(F)C2)c(C2CCC2)c1-c1ccc(Cl)cc1 [Compound 222, N-(5-(4-chlorophenyl)-4-cyclobutyl-1-methyl-1H-pyrazol-3-yl)-2-(3,3-difluorocyclobutyl)acetamide]",++ (“++” High Activity ≥ 0.7)
11,"Cn1nc(NC(=O)[C@@H]2CC2(F)F)c(C2CCC2)c1-c1ccc(Cl)cc1 [Compound 223, (S)-N-(5-(4-chlorophenyl)-4-cyclobutyl-1-methyl-1H-pyrazol-3-yl)-2,2-difluorocyclopropane-1-carboxamide]",+ (“+” Moderate Activity 0.15-0.7)
12,"Cn1nc(NC(=O)[C@H]2CC2(F)F)c(C2CCC2)c1-c1ccc(Cl)cc1 [Compound 224, (R)-N-(5-(4-chlorophenyl)-4-cyclobutyl-1-methyl-1H-pyrazol-3-yl)-2,2-difluorocyclopropane-1-carboxamide]",− (“−” No Activity < 0.15)
13,"Cc1nnsc1-c1c(C2CCC2)c(NC(=O)C2CC(F)(F)C2)nn1C [Compound 225, N-(4-cyclobutyl-1-methyl-5-(4-methyl-1,2,3-thiadiazol-5-yl)-1H-pyrazol-3-yl)-3,3-difluorocyclobutane-1-carboxamide]",+ (“+” Moderate Activity 0.15-0.7)
14,"Cn1nc(NC(=O)OC2CC(F)(F)C2)c(C2CCC2)c1-c1ccc(Cl)s1 [Compound 226, 3,3-difluorocyclobutyl (5-(5-chlorothiophen-2-yl)-4-cyclobutyl-1-methyl-1H-pyrazol-3-yl)carbamate]",++ (“++” High Activity ≥ 0.7)
15,"Cn1nc(NC(=O)C2COC2)c(C2CCC2)c1-c1ccc(F)cc1 [Compound 227, N-(4-cyclobutyl-5-(4-fluorophenyl)-1-methyl-1H-pyrazol-3-yl)oxetane-3-carboxamide]",− (“−” No Activity < 0.15)
16,"Cn1nc(NC(=O)C2CS(=O)(=O)C2)c(C2CCC2)c1-c1ccc(F)cc1 [Compound 228, N-(4-cyclobutyl-5-(4-fluorophenyl)-1-methyl-1H-pyrazol-3-yl)thietane-3-carboxamide 1,1-dioxide]",− (“−” No Activity < 0.15)

row,SMILES,Kv7.2/7.3 Activity
1,"O=C(Nc1nn(CCO)c(-c2ccc(Cl)s2)c1C1CCC1)C1CC(F)(F)C1 [Compound 229, N-(5-(5-chlorothiophen-2-yl)-4-cyclobutyl-1-(2-hydroxyethyl)-1H-pyrazol-3-yl)-3,3-difluorocyclobutane-1-carboxamide]",++ (“++” High Activity ≥ 0.7)
2,"Cn1nc(NC(=O)C[C@@H]2CC(F)(F)C2(F)F)c(C2CCC2)c1-c1ccc(Cl)s1 [Compound 230, (R)-N-(5-(5-chlorothiophen-2-yl)-4-cyclobutyl-1-methyl-1H-pyrazol-3-yl)-2-(2,2,3,3-tetrafluorocyclobutyl)acetamide]",++ (“++” High Activity ≥ 0.7)
3,"Cn1nc(NC(=O)C[C@H]2CC(F)(F)C2(F)F)c(C2CCC2)c1-c1ccc(Cl)s1 [Compound 231, (S)-N-(5-(5-chlorothiophen-2-yl)-4-cyclobutyl-1-methyl-1H-pyrazol-3-yl)-2-(2,2,3,3-tetrafluorocyclobutyl)acetamide]",++ (“++” High Activity ≥ 0.7)
4,"Cn1nc(NC(=O)C23CC(C(F)(F)F)(C2)C3)c(C2CCC2)c1-c1ccc(Cl)s1 [Compound 232, N-(5-(5-chlorothiophen-2-yl)-4-cyclobutyl-1-methyl-1H-pyrazol-3-yl)-3-(trifluoromethyl)bicyclo[1.1.1]pentane-1-carboxamide]",++ (“++” High Activity ≥ 0.7)
5,"CO[C@@H](CC(=O)Nc1nn(C)c(-c2ccc(Cl)s2)c1C1CCC1)C(F)(F)F [Compound 233, (S)-N-(5-(5-chlorothiophen-2-yl)-4-cyclobutyl-1-methyl-1H-pyrazol-3-yl)-4,4,4-trifluoro-3-methoxybutanamide]",++ (“++” High Activity ≥ 0.7)
6,"C[C@@H](C(=O)Nc1nn(C)c(-c2ccc(Cl)s2)c1C1CCC1)C1(C(F)(F)F)CC1 [Compound 234, (R)-N-(5-(5-chlorothiophen-2-yl)-4-cyclobutyl-1-methyl-1H-pyrazol-3-yl)-2-(1-(trifluoromethyl)cyclopropyl)propanamide]",++ (“++” High Activity ≥ 0.7)
7,"Cn1nc(NC(=O)C[C@@H]2CC(F)(F)C2(F)F)c(C2CCC2)c1-c1ccc(F)c(F)c1 [Compound 235, (R)-N-(4-cyclobutyl-5-(3,4-difluorophenyl)-1-methyl-1H-pyrazol-3-yl)-2-(2,2,3,3-tetrafluorocyclobutyl)acetamide]",++ (“++” High Activity ≥ 0.7)
8,"Cn1nc(NC(=O)C[C@H]2CC(F)(F)C2(F)F)c(C2CCC2)c1-c1ccc(F)c(F)c1 [Compound 236, (S)-N-(4-cyclobutyl-5-(3,4-difluorophenyl)-1-methyl-1H-pyrazol-3-yl)-2-(2,2,3,3-tetrafluorocyclobutyl)acetamide]",++ (“++” High Activity ≥ 0.7)
9,"Cn1nc(NC(=O)N[C@H]2CCC(F)(F)C2)c(C2CCC2)c1-c1ccc(F)cc1 [Compound 237, (S)-1-(4-cyclobutyl-5-(4-fluorophenyl)-1-methyl-1H-pyrazol-3-yl)-3-(3,3-difluorocyclopentyl)urea]",+ (“+” Moderate Activity 0.15-0.7)
10,"Cn1nc(NC(=O)N[C@@H]2CCC(F)(F)C2)c(C2CCC2)c1-c1ccc(F)cc1 [Compound 238, (R)-1-(4-cyclobutyl-5-(4-fluorophenyl)-1-methyl-1H-pyrazol-3-yl)-3-(3,3-difluorocyclopentyl)urea]",+ (“+” Moderate Activity 0.15-0.7)
11,"Cc1nnc(-c2c(C3CCC3)c(NC(=O)CC3CC(F)(F)C3)nn2C)s1 [Compound 239, N-(4-cyclobutyl-1-methyl-5-(5-methyl-1,3,4-thiadiazol-2-yl)-1H-pyrazol-3-yl)-2-(3,3-difluorocyclobutyl)acetamide]",− (“−” No Activity < 0.15)
12,"Cn1nc(NC(=O)NCC(F)(F)F)c(C2CCC2)c1-c1ccc(F)cc1 [Compound 240, 1-(4-cyclobutyl-5-(4-fluorophenyl)-1-methyl-1H-pyrazol-3-yl)-3-(2,2,2-trifluoroethyl)urea]",+ (“+” Moderate Activity 0.15-0.7)
13,"Cn1nc(NC(=O)OC2CC(F)(F)C2)c(C2CCC2)c1-c1ccc(F)cc1 [Compound 241, 3,3-difluorocyclobutyl (4-cyclobutyl-5-(4-fluorophenyl)-1-methyl-1H-pyrazol-3-yl)carbamate]",++ (“++” High Activity ≥ 0.7)
14,"Cn1nc(NC(=O)NCC2CC(F)(F)C2)c(C2CCC2)c1-c1ccc(F)cc1 [Compound 242, 1-(4-cyclobutyl-5-(4-fluorophenyl)-1-methyl-1H-pyrazol-3-yl)-3-((3,3-difluorocyclobutyl)methyl)urea]",+ (“+” Moderate Activity 0.15-0.7)
15,"Cn1nc(NC(=O)OCC2CC(F)(F)C2)c(C2CCC2)c1-c1ccc(F)cc1 [Compound 243, (3,3-difluorocyclobutyl)methyl (4-cyclobutyl-5-(4-fluorophenyl)-1-methyl-1H-pyrazol-3-yl)carbamate]",++ (“++” High Activity ≥ 0.7)
